Experimental data reported in patent US10793580B2, “Substituted pyrazoloazepin-8-ones and their use as phosphodiesterase inhibitors” (LEO Pharma A/S, priority 2016, dated 2020).

target: human PDE4D catalytic domain (Homo sapiens (Human), UniProt Q08499); assay: PDE4 Assay (TR-FRET, FAM-cAMP cleavage); format: biochemical; settings: Table 17, Examples 297-316; read-out: PDE4 IC50 range
Method in brief: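 Readout is Tb-to-FAM time-resolved FRET after nanoparticle capture of AMP, the product of cleaving a cAMP/FAM-cAMP mixture by PDE4D catalytic domain (S380-L740) in the presence of titrated compound. Values are IC50 ranges in nM: concentration halving substrate cleavage relative to controls.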

Chain of human PDE4D catalytic domain (Q08499 380-740): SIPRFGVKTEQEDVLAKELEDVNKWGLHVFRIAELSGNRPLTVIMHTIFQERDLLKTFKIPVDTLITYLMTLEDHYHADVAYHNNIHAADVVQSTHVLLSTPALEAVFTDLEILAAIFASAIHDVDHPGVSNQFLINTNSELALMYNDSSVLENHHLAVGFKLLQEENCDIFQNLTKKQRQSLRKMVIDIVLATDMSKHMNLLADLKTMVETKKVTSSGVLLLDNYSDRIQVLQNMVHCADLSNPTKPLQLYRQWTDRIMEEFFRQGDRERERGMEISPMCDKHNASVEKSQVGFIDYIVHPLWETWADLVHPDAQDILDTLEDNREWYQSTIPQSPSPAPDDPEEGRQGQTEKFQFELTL

With `CCn1nc(CC(C)(C)COC(=O)c2cnc(C)s2)c2c1C(=O)NCC1(CCOCC1)C2` [Example 311, [3-(1-ethyl-8-oxo-spiro[6,7-dihydro-4H-pyrazolo[3,4-c]azepine-5,4′-tetrahydropyran]-3-yl)-2,2-dimethyl-propyl] 2-methylthiazole-5-carboxylate] the IC50 was less than 100 nM.

same assay, conditions: human PDE4D catalytic domain (UniProt Q08499 [S380-L740]); 50% inhibition of substrate cleavage; read-out: PDE4 IC50 range

`CCn1nc(CCCOC(=O)c2c(F)cccc2OC)c2c1C(=O)NCC1(CCOCC1)C2` [Example 41, 3-(1-ethyl-8-oxo-spiro[6,7-dihydro-4H-pyrazolo[3,4-c]azepine-5,4′-tetrahydropyran]-3-yl)propyl 2-fluoro-6-methoxy-benzoate] and `CCn1nc(CCCOC(=O)c2ccc(OC)c(C(F)(F)F)c2)c2c1C(=O)NCC1(CCOCC1)C2` [Example 79, 3-(1-ethyl-8-oxo-spiro[6,7-dihydro-4H-pyrazolo[3,4-c]azepine-5,4′-tetrahydro-pyran]-3-yl)propyl 4-methoxy-3-(trifluoromethyl)benzoate] cannot be ordered by IC50: less than 100 nM for the first, less than 100 nM for the second.

`CCn1nc(CC(C)(C)COC(=O)c2ccccc2F)c2c1C(=O)NCC1(CCOCC1)C2` [Example 193, [3-(1-ethyl-8-oxo-spiro[6,7-dihydro-4H-pyrazolo[3,4-c]azepine-5,4′-tetrahydropyran]-3-yl)-2,2-dimethyl-propyl] 2-fluorobenzoate] and `CCn1nc(CC(C)(C)COC(=O)c2ccccc2OC)c2c1C(=O)NCC1(CCOCC1)C2` [Example 198, [3-(1-ethyl-8-oxo-spiro[6,7-dihydro-4H-pyrazolo[3,4-c]azepine-5,4′-tetrahydropyran]-3-yl)-2,2-dimethyl-propyl] 2-methoxybenzoate] cannot be ordered by IC50: less than 100 nM for the first, less than 100 nM for the second.

First: CCn1nc(CCCOC(=O)C2CCSCC2)c2c1C(=O)NCC1(CCOCC1)C2 [Example 257, 3-(1-ethyl-8-oxo-spiro[6,7-dihydro-4H-pyrazolo[3,4-c]azepine-5,4′-tetrahydro-pyran]-3-yl)propyl tetrahydro-thiopyran-4-carboxylate]
Second: CCn1nc(CCCOC(=O)C2CCN(C)CC2)c2c1C(=O)NCC1(CCOCC1)C2 [Example 256, 3-(1-ethyl-8-oxo-spiro[6,7-dihydro-4H-pyrazolo[3,4-c]azepine-5,4′-tetrahydropyran]-3-yl)propyl 1-methylpiperidine-4-carboxylate]
The IC50 of the first is lower: less than 100 nM for the first, 100 to 500 nM for the second.

`CCn1nc(C[C@@H](C)COC(=O)c2ccc(C)cc2)c2c1C(=O)NCC1(CCOCC1)C2` [Example 140, [(2R)-3-(1-ethyl-8-oxo-spiro[6,7-dihydro-4H-pyrazolo[3,4-c]azepine-5,4′-tetrahydropyran]-3-yl)-2-methyl-propyl] 4-methylbenzoate] and `CCn1nc(C[C@@H](C)COC(=O)c2cccc(C)c2)c2c1C(=O)NCC1(CCOCC1)C2` [Example 142, [(2R)-3-(1-ethyl-8-oxo-spiro[6,7-dihydro-4H-pyrazolo[3,4-c]azepine-5,4′-tetrahydropyran]-3-yl)-2-methyl-propyl] 3-methylbenzoate] cannot be ordered by IC50: less than 100 nM for the first, less than 100 nM for the second.

`CCn1nc(CCCOC(=O)c2ccc(Cl)c(C(F)(F)F)c2)c2c1C(=O)NCC1(CCOCC1)C2` [Example 89, 3-(1-ethyl-8-oxo-spiro[6,7-dihydro-4H-pyrazolo[3,4-c]azepine-5,4′-tetrahydro-pyran]-3-yl)propyl 4-chloro-3-(trifluoromethyl)benzoate] and `CCn1nc(CCCOC(=O)c2cc(F)ccc2C(F)(F)F)c2c1C(=O)NCC1(CCOCC1)C2` [Example 74, 3-(1-ethyl-8-oxo-spiro[6,7-dihydro-4H-pyrazolo[3,4-c]azepine-5,4′-tetrahydro-pyran]-3-yl)propyl 5-fluoro-2-(trifluoromethyl)benzoate] cannot be ordered by IC50: less than 100 nM for the first, less than 100 nM for the second.

`CCn1nc(CCCOC(=O)c2ccc(C#N)c(F)c2)c2c1C(=O)NCC1(CCOCC1)C2` [Example 32, 3-(1-ethyl-8-oxo-spiro[6,7-dihydro-4H-pyrazolo[3,4-c]azepine-5,4′-tetrahydropyran]-3-yl)propyl 4-cyano-3-fluoro-benzoate] and `CCn1nc(CCCOC(=O)c2ccn(C)n2)c2c1C(=O)NCC1(CCOCC1)C2` [Example 237, 3-(1-ethyl-8-oxo-spiro[6,7-dihydro-4H-pyrazolo[3,4-c]azepine-5,4′-tetrahydropyran]-3-yl)propyl 1-methylpyrazole-3-carboxylate] cannot be ordered by IC50: less than 100 nM for the first, less than 100 nM for the second.

`CCn1nc(C[C@@H](C)COC(=O)CCSC)c2c1C(=O)NCC1(CCOCC1)C2` [Example 139, [(2R)-3-(1-ethyl-8-oxo-spiro[6,7-dihydro-4H-pyrazolo[3,4-c]azepine-5,4′-tetrahydropyran]-3-yl)-2-methyl-propyl] 3-methylsulfanylpropanoate] and `CCn1nc(C[C@@H](C)COC(=O)c2ccccc2OC)c2c1C(=O)NCC1(CCOCC1)C2` [Example 151, [(2R)-3-(1-ethyl-8-oxo-spiro[6,7-dihydro-4H-pyrazolo[3,4-c]azepine-5,4′-tetrahydropyran]-3-yl)-2-methyl-propyl] 2-methoxybenzoate] cannot be ordered by IC50: less than 100 nM for the first, less than 100 nM for the second.

`CCn1nc(CCCOC(=O)c2cccc(C(=O)N3CCN(C(C)=O)CC3)c2)c2c1C(=O)NCC1(CCOCC1)C2` [Example 120, 3-(1-ethyl-8-oxo-spiro[6,7-dihydro-4H-pyrazolo[3,4-c]azepine-5,4′-tetrahydropyran]-3-yl)propyl 3-(4-acetylpiperazine-1-carbonyl)benzoate] and `CCn1nc(C[C@@H](C)COC(=O)c2ccc(C(=O)N3CCN(C)CC3)cc2)c2c1C(=O)NCC1(CCOCC1)C2` [Example 175, [(2R)-3-(1-ethyl-8-oxo-spiro[6,7-dihydro-4H-pyrazolo[3,4-c]azepine-5,4′-tetrahydropyran]-3-yl)-2-methyl-propyl] 4-(4-methylpiperazine-1-carbonyl)benzoate] cannot be ordered by IC50: less than 100 nM for the first, less than 100 nM for the second.

`CCn1nc(CCCOC(=O)c2ccccc2S(C)(=O)=O)c2c1C(=O)NCC1(CCOCC1)C2` [Example 64, 3-(1-ethyl-8-oxo-spiro[6,7-dihydro-4H-pyrazolo[3,4-c]azepine-5,4′-tetrahydropyran]-3-yl)propyl 2-methylsulfonylbenzoate] and `CCn1nc(CCCOC(=O)c2cc(OC)ccc2C(F)(F)F)c2c1C(=O)NCC1(CCOCC1)C2` [Example 80, 3-(1-ethyl-8-oxo-spiro[6,7-dihydro-4H-pyrazolo[3,4-c]azepine-5,4′-tetrahydro-pyran]-3-yl)propyl 5-methoxy-2-(trifluoromethyl)benzoate] cannot be ordered by IC50: less than 100 nM for the first, less than 100 nM for the second.

`CCn1nc(CC(C)(C)COC(=O)c2ccc(S(=O)(=O)N(C)C)cc2)c2c1C(=O)NCC1(CCOCC1)C2` [Example 208, [3-(1-ethyl-8-oxo-spiro-[6,7-dihydro-4H-pyrazolo-[3,4-c]azepine-5,4′-tetra-hydropyran]-3-yl)-2,2-dimethyl-propyl] 4-(di-methylsulfamoyl)benzoate] and `CCn1nc(CC(C)(C)COC(=O)c2ccc(S(C)(=O)=O)cc2)c2c1C(=O)NCC1(CCOCC1)C2` [Example 202, [3-(1-ethyl-8-oxo-spiro[6,7-dihydro-4H-pyrazolo[3,4-c]azepine-5,4′-tetrahydropyran]-3-yl)-2,2-dimethyl-propyl] 4-methylsulfonylbenzoate] cannot be ordered by IC50: less than 100 nM for the first, less than 100 nM for the second.

`CCn1nc(C[C@@H](C)COC(=O)c2cccc(C(=O)N(C)C)c2)c2c1C(=O)NCC1(CCOCC1)C2` [Example 180, [(2R)-3-(1-ethyl-8-oxo-spiro[6,7-dihydro-4H-pyrazolo[3,4-c]azepine-5,4′-tetrahydropyran]-3-yl)-2-methyl-propyl] 3-(di-methylcarbamoyl)benzoate] and `CCn1nc(C[C@@H](C)COC(=O)c2ccc(C(=O)NC)cc2)c2c1C(=O)NCC1(CCOCC1)C2` [Example 170, [(2R)-3-(1-ethyl-8-oxo-spiro[6,7-dihydro-4H-pyrazolo[3,4-c]azepine-5,4′-tetrahydropyran]-3-yl)-2-methyl-propyl] 4-(methylcarbamoyl)benzoate] cannot be ordered by IC50: less than 100 nM for the first, less than 100 nM for the second.

`CCn1nc(CC(C)(C)COC(=O)c2cccc(C(C)=O)c2)c2c1C(=O)NCC1(CCOCC1)C2` [Example 201, [3-(1-ethyl-8-oxo-spiro[6,7-dihydro-4H-pyrazolo[3,4-c]azepine-5,4′-tetrahydropyran]-3-yl)-2,2-dimethyl-propyl] 3-acetylbenzoate] and `CCn1nc(CC(C)(C)COC(=O)c2ccc(C)cc2)c2c1C(=O)NCC1(CCOCC1)C2` [Example 188, [3-(1-ethyl-8-oxo-spiro[6,7-dihydro-4H-pyrazolo[3,4-c]azepine-5,4′-tetrahydropyran]-3-yl)-2,2-dimethyl-propyl] 4-methylbenzoate] cannot be ordered by IC50: less than 100 nM for the first, less than 100 nM for the second.

`CCn1nc(CC(C)(C)COC(=O)c2ccc(OC)cc2)c2c1C(=O)NCC1(CCOCC1)C2` [Example 197, [3-(1-ethyl-8-oxo-spiro[6,7-dihydro-4H-pyrazolo[3,4-c]azepine-5,4′-tetrahydropyran]-3-yl)-2,2-dimethyl-propyl] 4-methoxybenzoate] and `CCn1nc(CC(C)(C)COC(=O)c2ccc(S(=O)(=O)NC)cc2)c2c1C(=O)NCC1(CCOCC1)C2` [Example 205, [3-(1-ethyl-8-oxo-spiro[6,7-dihydro-4H-pyrazolo[3,4-c]azepine-5,4′-tetrahydropyran]-3-yl)-2,2-dimethyl-propyl] 4-(methylsulfamoyl)benzoate] cannot be ordered by IC50: less than 100 nM for the first, less than 100 nM for the second.

`CCn1nc(C[C@@H](C)COC(=O)c2ccc(S(C)(=O)=O)cc2)c2c1C(=O)NCC1(CCOCC1)C2` [Example 155, [(2R)-3-(1-ethyl-8-oxo-spiro[6,7-dihydro-4H-pyrazolo[3,4-c]azepine-5,4′-tetrahydropyran]-3-yl)-2-methyl-propyl] 4-methylsulfonylbenzoate] and `CCn1nc(CCCCOC(=O)c2coc(C)n2)c2c1C(=O)NCC1(CCOCC1)C2` [Example 266, 4-(1-ethyl-8-oxo-spiro[6,7-dihydro-4H-pyrazolo[3,4-c]azepine-5,4′-tetrahydropyran]-3-yl)butyl 2-methyloxazole-4-carboxylate] cannot be ordered by IC50: less than 100 nM for the first, less than 100 nM for the second.
